# From patent US8318707B2 (priority 2006, dated 2012)
# Tests used:
# [1] = test system: mixed neural culture of hippocampus cells exposed to kainate; assay type: cell-based, rat
# [2] = test system: permanent focal ischemia (occlusion of the middle cerebral artery); experiment: in vivo permanent focal ischemia model in mice (MCAo), lesion volume by TTC colouring
# [3] = test system: organotypical slices of rat hippocampus (CA3 region); experiment: in vitro complex excitotoxicity model: organotypical rat hippocampus culture exposed to kainate; conditions: 20 μM, 24 hours
Compound,amount necessary compared with (S)-roscovitine to prevent the death of the same number of neurones [1],neuronal death percentage (RND) [1] [%],"reduction in the size of the penumbra zone compared with the control ([2]; ICV, 500 μM, 3 hours after occlusion) [%]","volume of the necrotic core ([2]; ICV, 500 μM, 3 hours after occlusion (control 6.06 mm3)) [mm3]","volume of the penumbra zone ([2]; ICV, 500 μM, 3 hours after occlusion (control 12.68 mm3)) [mm3]","total volume of the lesion ([2]; ICV, 500 μM, 3 hours after occlusion (control 18.74 mm3)) [mm3]","reduction in the total volume of the lesion compared with the control ([2]; intracerebroventricular (ICV), 500 μM by osmotic micropump from 48 hours before MCAo, 3 hours after occlusion) [%]","reduction in the size of the penumbra compared with the control ([2]; systemic (PI), 25 mg/kg intraperitoneal x2, 3 hours after occlusion) [%]","volume of the necrotic core ([2]; systemic (PI), 25 mg/kg intraperitoneal x2, 3 hours after occlusion (control 5.03 mm3)) [mm3]","volume of the penumbra zone ([2]; systemic (PI), 25 mg/kg intraperitoneal x2, 3 hours after occlusion (control 15.31 mm3)) [mm3]","total volume of the lesion ([2]; systemic (PI), 25 mg/kg intraperitoneal x2, 3 hours after occlusion (control 20.34 mm3)) [mm3]","reduction in the total volume of the lesion compared with the control ([2]; systemic (PI), 25 mg/kg, 2 intraperitoneal injections 15 minutes before and 1 hour after MCAo, 3 hours after occlusion) [%]",neurones prevented from death compared with (R)-roscovitine [1],toxic effect on organotypical rat hippocampus cultures [3]
CC[C@H](CO)Nc1nc(NCc2ccccc2)c2ncn(C(C)C)c2n1 [(R)-roscovitine],Three times more,62,,,,,,,,,,,,
CC[C@@H](CO)Nc1nc(NCc2ccccc2)c2ncn(C(C)C)c2n1 [(S)-roscovitine],,,35.8,5.39,8.14,13.54,27.7,38.9,4.88,9.22,14.10,30.7,twice as many,absence of toxic effect
